{"source": "patent US20240238439A1", "about": "“HER3-BINDING ANTIBODY-DRUG CONJUGATE” (Hummingbird Bioscience Pte. Ltd., priority 2023, published 2024)", "origin": "cited, not measured here", "conditions": "subset of EGFR-mutant and TKI-resistant lung cancers, and metastatic breast cancers; cited from earlier work", "data": [{"substance": "Patritumab-DXd", "values": [{"measurement": "clinical responses", "value": "clinical responses have been observed"}]}]}
